Consider one compound from patent publication US20100196464A1, “ORLISTAT PHARMACEUTICAL FORMULATIONS” (DR. REDDY'S LABORATORIES LIMITED, priority 2007, published 2010).

The conditions of series [1]: physiological pH range; cited from earlier work.
Series [2] in a line: Bulk density and tapped density. The settings on record: orlistat used in the formulation of Example 6. It counts as physicochemical. The text has this:
Other important physicochemical characteristics of powders are the density properties such as bulk and tapped density, weight variation and flow properties such as angle of repose. Bulk density is the undisturbed packing density of that substance and tapped bulk density relates to the packing density after tapping a bed of substance until no change in the packing density is seen. Bulk density and tapped density, can be determined using compendial bulk density apparatus, such as the method given in Test 616 “Bulk Density and Tapped Density,” United States Pharmacopeia 29, United States Pharmacopeial Convention, Inc., Rockville, Md., 2005 (“USP”). Weight variation can be determined using the method given in United States Pharmacopeia 29.

Series [3] is described as follows: Particle size distribution. It counts as physicochemical. The source says: The term “average particle size” refers to particle sizes represented by D(0.5), wherein 50% of particles in a powder have sizes greater than, and 50% of particles have sizes less than, a specified value.
Various parameters impacting the preparation of solid oral dosage forms include the physical properties of active ingredients as well as those of the final blends of active ingredients with excipients, wherein the physical properties include flow properties, particle sizes (such as determined by sieve analyzers, electrical conductance instruments such as a Coulter counter, and laser light diffraction particle size analyzers such as the instruments available from Malvern Instruments, Ltd., Malvern, Worcestershire, United Kingdom), bulk densities and tapped densities, compressibility indexes, Hausner ratios (determined by USP density apparatus), flow properties (such as determined by Flowdex apparatus), etc.
The percent of particles with different dimensions that exist in a powder is called the particle size distribution. It is represented in certain ways. Particle size is the maximum dimension of a particle, normally expressed in units of μm. Particle size distributions can be expressed in terms of D(0.1), D(0.5), D(0.9) and D [4,3]. The D(0.1), D(0.5) and D(0.9) represent the 10th, median or the 50th percentile, and the 90th percentile of the particle size distribution, respectively. They can be expressed as volume, weight, or surface percentages. For example when measured by volume, D(0.1), D(0.5), D(0.9) is a value of the distribution such that 10%, 50%, 90% by volume of the particles have a size of this value or less, or is the percentage of particles smaller than that size. D(0.5) is also known as median diameter of particle. It is one of the important parameters representing characteristics of particle of powder. For a sample, if D(0.5)=5 μm, it means that 50% of the particles are smaller than 5 μm. Similarly, if D(0.1)=5 μm, 10% by volume of the particles are less than or equal to 5 μm, and if D(0.9)=5 μm, 90% of the particles are less than or equal to 5 μm. D[4,3] is the volume moment mean of the particles or the volume weighted particle size.

The conditions of series [4]: cited from earlier work.
Setting [5] is: orlistat used in the formulation of Example 1.
[6] abbreviates: orlistat used in the formulation of Example 6.

`CCCCCCCCCCC[C@@H](C[C@@H]1OC(=O)[C@H]1CCCCCC)OC(=O)[C@H](CC(C)C)NC=O` [Orlistat, (S)-1-[[(2S,3S)-3-hexyl-4-oxo-2-oxetanyl]methyl]-dodecyl ester]: in series [1], the pKa result is recorded as “no pKa within the physiological pH range”. In series [2], this compound yielded a Bulk density of 0.424 g/mL and a Tapped density of 0.571 g/mL. Besides, in series [3] (setting [5]), the “D(0.1)” value amounted to 1.8 μm, the “D(0.5)” value came out at 8.6 μm and the “D(0.9)” value came to 24.5 μm. Further, in series [3] (setting [6]), the “D(0.1)” value is 18.7 μm, the “D(0.5)” value is reported as 84.2 μm and the “D(0.9)” value was 171.8 μm. Also, the Solubility in chloroform entry in series [4] (chloroform) was “freely soluble”. The Solubility in ethanol result in series [4] (ethanol) is “very soluble”. In addition, in series [4] (methanol), the Solubility in methanol entry was “very soluble”. In addition, the Solubility in water result in series [4] (water) is reported as “practically insoluble”.
